Columns and labels:
[1] = biological target: Epidermal growth factor receptor (Homo sapiens, UniProt P00533, L858R/T790M); test: Inhibition of EGFR L858R/T790M mutant (unknown origin) by mobility shift assay
NCI-H1975 = test: Antiproliferative activity against human NCI-H1975 cells harboring EGFR L858R/T790M mutant assessed as inhibition of cell growth incubated for 72 hrs under hypoxia condition by SRB assay; format: functional, cell-based; settings: NCI-H1975, 72 h
[2] = Ratio of IC50 for antiproliferative activity against human NCI-H1975 cells harboring EGFR L858R/T790M mutant under normoxia condition to IC50 for antiproliferative activity against human NCI-H1975 cells harboring EGFR L858R/T790M mutant under hypoxia condition; format: functional
HCC827 [3] = test: Antiproliferative activity against human HCC827 cells harboring EGFR del19 mutant assessed as inhibition of cell growth incubated for 72 hrs under normoxia condition by SRB assay; format: functional, cell-based; settings: HCC827, 72 h
HCC827 [4] = test: Antiproliferative activity against human HCC827 cells harboring EGFR del19 mutant assessed as inhibition of cell growth incubated for 72 hrs under hypoxia condition by SRB assay; format: functional, cell-based; settings: HCC827, 72 h
[5] = biological target: Fibroblast growth factor receptor 1 (Homo sapiens) (UniProt P11362); test: Inhibition of FGFR1 (unknown origin) at 1 uM relative to control
[6] = biological target: T1, Tyrosine-protein kinase JAK2 (Homo sapiens, UniProt O60674); test: Inhibition of JAK2 (unknown origin) at 1 uM relative to control
T1 sequence (O60674 whole entry): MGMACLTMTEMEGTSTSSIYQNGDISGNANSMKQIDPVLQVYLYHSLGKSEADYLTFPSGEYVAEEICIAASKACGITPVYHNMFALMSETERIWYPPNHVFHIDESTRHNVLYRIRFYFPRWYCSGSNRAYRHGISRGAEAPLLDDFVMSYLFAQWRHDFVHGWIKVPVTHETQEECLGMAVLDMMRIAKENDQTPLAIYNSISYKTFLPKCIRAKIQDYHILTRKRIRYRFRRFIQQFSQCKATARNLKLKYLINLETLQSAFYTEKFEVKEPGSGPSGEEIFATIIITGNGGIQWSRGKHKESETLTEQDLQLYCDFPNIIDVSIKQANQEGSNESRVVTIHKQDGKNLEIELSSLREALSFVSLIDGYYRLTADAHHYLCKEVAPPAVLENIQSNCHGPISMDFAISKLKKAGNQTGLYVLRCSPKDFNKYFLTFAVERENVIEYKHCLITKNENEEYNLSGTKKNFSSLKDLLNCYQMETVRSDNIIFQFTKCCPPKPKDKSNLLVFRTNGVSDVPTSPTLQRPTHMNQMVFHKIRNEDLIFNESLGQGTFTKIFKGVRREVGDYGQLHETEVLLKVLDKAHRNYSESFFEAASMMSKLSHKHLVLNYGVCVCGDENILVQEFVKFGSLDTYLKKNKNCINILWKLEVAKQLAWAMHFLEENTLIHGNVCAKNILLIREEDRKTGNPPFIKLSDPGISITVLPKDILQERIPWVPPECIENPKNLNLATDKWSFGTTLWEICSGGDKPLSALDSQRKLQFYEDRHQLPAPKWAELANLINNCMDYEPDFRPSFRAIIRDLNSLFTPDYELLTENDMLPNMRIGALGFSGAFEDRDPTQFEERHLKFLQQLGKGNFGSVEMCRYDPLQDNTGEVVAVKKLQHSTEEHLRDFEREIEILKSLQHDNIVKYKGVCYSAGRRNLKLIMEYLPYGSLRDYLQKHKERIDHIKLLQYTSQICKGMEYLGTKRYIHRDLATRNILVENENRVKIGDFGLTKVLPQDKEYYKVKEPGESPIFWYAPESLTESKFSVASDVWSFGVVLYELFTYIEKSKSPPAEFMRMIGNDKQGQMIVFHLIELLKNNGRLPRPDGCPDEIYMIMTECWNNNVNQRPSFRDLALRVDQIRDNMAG

[7] = biological target: Proto-oncogene tyrosine-protein kinase receptor Ret (Homo sapiens) (UniProt P07949); test: Inhibition of RET (unknown origin) at 1 uM relative to control
[8] = biological target: High affinity nerve growth factor receptor (Homo sapiens) (UniProt P04629); test: Inhibition of TRKA (unknown origin) at 1 uM relative to control
[9] = biological target: Proto-oncogene tyrosine-protein kinase Src (Homo sapiens) (UniProt P12931); test: Inhibition of SRC (unknown origin) at 1 uM relative to control
[10] = biological target: Hepatocyte growth factor receptor (Homo sapiens) (UniProt P08581); test: Inhibition of MET (unknown origin) at 1 uM relative to control
Hepatocyte growth factor receptor (Homo sapiens), sequence (P08581 whole entry): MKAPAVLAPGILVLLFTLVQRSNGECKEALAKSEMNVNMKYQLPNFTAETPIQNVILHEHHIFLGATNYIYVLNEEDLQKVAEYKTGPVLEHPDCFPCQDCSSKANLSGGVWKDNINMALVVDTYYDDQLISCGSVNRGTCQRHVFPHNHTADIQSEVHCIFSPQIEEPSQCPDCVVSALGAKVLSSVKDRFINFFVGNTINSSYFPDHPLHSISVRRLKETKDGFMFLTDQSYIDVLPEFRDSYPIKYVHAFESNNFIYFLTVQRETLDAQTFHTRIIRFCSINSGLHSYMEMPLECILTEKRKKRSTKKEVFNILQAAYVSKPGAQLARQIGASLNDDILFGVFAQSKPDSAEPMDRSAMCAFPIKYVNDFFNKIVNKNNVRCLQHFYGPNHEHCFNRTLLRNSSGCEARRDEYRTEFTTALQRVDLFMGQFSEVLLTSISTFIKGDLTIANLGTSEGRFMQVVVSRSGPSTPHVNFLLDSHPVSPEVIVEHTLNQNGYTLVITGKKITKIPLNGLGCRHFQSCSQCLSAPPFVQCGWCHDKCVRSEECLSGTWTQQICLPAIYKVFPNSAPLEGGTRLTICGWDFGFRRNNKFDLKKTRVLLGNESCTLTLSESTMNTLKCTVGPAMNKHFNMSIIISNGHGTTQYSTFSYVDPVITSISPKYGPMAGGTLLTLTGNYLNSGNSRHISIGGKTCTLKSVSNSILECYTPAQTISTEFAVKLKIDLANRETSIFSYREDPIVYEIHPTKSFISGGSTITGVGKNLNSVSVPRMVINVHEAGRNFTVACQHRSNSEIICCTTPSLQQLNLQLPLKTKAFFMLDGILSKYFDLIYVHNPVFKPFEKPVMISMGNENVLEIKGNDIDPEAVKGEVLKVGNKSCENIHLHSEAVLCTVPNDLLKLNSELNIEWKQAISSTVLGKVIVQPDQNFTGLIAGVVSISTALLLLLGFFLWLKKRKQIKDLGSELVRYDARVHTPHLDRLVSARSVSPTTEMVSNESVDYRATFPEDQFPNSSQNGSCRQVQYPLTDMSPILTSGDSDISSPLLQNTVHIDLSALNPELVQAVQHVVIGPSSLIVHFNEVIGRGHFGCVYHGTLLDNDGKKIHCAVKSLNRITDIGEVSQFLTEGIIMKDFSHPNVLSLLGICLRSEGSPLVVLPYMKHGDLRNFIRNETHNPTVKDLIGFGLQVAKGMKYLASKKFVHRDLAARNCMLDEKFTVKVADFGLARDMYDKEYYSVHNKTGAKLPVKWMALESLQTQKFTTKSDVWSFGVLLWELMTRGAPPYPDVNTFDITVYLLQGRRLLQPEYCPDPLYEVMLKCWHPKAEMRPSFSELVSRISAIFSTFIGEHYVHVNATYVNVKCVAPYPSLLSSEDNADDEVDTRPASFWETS

[11] = biological target: Mitogen-activated protein kinase 10 (Homo sapiens) (UniProt P53779); test: Inhibition of JNK3 (unknown origin) at 1 uM relative to control
Mitogen-activated protein kinase 10 (Homo sapiens), sequence (P53779 whole entry): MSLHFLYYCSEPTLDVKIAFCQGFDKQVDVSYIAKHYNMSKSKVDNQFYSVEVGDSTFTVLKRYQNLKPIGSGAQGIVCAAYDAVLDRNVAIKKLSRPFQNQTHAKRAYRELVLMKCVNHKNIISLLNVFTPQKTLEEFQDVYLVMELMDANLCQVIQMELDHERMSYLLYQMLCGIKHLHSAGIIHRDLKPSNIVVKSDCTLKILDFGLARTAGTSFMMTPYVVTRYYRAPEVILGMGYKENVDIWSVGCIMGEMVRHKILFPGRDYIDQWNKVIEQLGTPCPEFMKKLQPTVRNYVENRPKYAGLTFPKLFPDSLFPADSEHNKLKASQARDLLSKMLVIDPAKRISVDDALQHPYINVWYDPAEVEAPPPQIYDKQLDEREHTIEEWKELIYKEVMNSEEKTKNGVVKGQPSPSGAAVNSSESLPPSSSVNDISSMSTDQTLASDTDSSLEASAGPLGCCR

[12] = biological target: Mast/stem cell growth factor receptor Kit (Homo sapiens) (UniProt P10721); test: Inhibition of KIT (unknown origin) at 1 uM relative to control
[13] = biological target: Receptor-type tyrosine-protein kinase FLT3 (Homo sapiens) (UniProt P36888); test: Inhibition of FLT3 (unknown origin) at 1 uM relative to control
[14] = biological target: Tyrosine-protein kinase BTK (Homo sapiens) (UniProt Q06187); test: Inhibition of BTK (unknown origin) at 1 uM relative to control
[15] = biological target: ALK tyrosine kinase receptor (Homo sapiens) (UniProt Q9UM73); test: Inhibition of ALK (unknown origin) at 1 uM relative to control
ALK tyrosine kinase receptor (Homo sapiens), sequence (Q9UM73 19-1620 limits assumed): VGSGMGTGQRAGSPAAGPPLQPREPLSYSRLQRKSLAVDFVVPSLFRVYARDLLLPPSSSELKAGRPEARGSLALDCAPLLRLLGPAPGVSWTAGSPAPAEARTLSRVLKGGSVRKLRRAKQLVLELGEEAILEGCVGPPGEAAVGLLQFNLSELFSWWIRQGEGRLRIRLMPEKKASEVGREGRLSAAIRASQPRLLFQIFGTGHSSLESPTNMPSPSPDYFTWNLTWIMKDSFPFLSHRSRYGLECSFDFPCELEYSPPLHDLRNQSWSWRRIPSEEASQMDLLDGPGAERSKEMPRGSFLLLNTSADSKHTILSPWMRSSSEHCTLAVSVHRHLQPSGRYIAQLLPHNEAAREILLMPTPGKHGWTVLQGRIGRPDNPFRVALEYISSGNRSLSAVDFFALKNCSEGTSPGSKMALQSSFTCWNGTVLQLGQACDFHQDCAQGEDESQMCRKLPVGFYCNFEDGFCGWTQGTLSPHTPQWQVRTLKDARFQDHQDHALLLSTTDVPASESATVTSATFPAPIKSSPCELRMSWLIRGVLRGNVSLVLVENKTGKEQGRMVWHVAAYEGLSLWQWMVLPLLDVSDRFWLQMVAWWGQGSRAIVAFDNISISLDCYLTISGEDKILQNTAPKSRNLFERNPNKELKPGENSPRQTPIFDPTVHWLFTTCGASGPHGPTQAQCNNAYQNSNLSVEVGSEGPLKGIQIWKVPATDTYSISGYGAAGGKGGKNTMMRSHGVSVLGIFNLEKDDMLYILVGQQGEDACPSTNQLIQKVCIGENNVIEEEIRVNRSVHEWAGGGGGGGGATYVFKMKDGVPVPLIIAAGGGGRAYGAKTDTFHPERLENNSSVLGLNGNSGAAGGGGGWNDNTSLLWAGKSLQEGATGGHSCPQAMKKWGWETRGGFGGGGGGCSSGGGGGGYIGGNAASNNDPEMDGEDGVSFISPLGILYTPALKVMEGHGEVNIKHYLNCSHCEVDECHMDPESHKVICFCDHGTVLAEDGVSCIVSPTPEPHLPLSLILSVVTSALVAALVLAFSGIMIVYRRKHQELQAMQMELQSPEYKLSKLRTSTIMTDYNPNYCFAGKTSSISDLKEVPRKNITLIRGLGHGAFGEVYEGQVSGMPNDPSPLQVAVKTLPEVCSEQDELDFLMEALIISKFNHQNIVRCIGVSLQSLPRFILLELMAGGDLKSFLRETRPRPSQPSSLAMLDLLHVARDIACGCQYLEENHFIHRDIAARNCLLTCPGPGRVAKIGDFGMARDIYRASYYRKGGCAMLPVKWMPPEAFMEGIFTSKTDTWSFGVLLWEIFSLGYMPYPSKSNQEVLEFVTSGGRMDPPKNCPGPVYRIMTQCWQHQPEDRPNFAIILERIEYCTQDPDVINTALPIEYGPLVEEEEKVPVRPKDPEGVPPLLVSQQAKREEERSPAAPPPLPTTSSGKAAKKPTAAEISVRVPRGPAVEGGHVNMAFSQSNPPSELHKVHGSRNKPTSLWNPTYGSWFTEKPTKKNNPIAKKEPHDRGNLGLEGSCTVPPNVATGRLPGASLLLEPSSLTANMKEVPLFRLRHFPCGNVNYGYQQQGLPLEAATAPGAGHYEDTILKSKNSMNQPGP

[16] = biological target: Platelet-derived growth factor receptor alpha (Homo sapiens, UniProt P16234); test: Inhibition of PDGFRalpha (unknown origin) at 1 uM relative to control
[17] = biological target: MAP kinase-activated protein kinase 2 (Homo sapiens) (UniProt P49137); test: Inhibition of MAPKAPK2 (unknown origin) at 1 uM relative to control
[18] = system: Epidermal growth factor receptor (Homo sapiens), P00533 [L858R,T790M,C797S]; test: Inhibition of EGFR L858R/T790M/C797S triple mutant (unknown origin) at 1 uM relative to control
Homo sapiens = organism: Homo sapiens; test: Inhibition of ABL (unknown origin) at 1 uM relative to control
[19] = biological target: RAC-alpha serine/threonine-protein kinase (Homo sapiens) (UniProt P31749); test: Inhibition of AKT1 (unknown origin) at 1 uM relative to control
RAC-alpha serine/threonine-protein kinase (Homo sapiens), sequence (P31749 whole entry): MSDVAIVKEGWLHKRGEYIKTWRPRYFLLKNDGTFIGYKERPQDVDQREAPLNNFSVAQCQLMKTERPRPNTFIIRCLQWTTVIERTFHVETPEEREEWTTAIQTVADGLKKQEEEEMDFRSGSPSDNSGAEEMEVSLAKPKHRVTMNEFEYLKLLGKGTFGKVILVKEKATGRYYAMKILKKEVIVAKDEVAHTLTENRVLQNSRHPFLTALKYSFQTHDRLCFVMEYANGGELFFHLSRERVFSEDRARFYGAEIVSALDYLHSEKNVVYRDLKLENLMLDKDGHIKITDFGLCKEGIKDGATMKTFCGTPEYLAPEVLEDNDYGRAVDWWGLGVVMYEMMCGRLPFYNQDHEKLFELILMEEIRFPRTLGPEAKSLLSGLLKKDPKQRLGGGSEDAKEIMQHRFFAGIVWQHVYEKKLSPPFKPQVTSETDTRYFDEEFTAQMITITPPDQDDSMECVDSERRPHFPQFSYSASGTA

[20] = biological target: Mitogen-activated protein kinase 1 (Homo sapiens) (UniProt P28482); test: Inhibition of ERK2 (unknown origin) at 1 uM relative to control
[21] = biological target: Tyrosine-protein kinase receptor UFO (Homo sapiens) (UniProt P30530); test: Inhibition of AXL (unknown origin) at 1 uM relative to control
[22] = biological target: Tyrosine-protein kinase ITK/TSK (Homo sapiens) (UniProt Q08881); test: Inhibition of ITK (unknown origin) at 1 uM relative to control
[23] = system: Serine/threonine-protein kinase B-raf (Homo sapiens), P15056 [V600E]; test: Inhibition of BRAF V600E mutant (unknown origin) at 1 uM relative to control
[24] = biological target: Cyclin-dependent kinase 4/cyclin D1 (Homo sapiens) (UniProt P11802+P24385); test: Inhibition of CDK4/CyclinD1 (unknown origin) at 1 uM relative to control; format: protein-complex assay
[25] = biological target: T1, Tyrosine-protein kinase JAK2; test: Inhibition of JAK2 (unknown origin)
[26] = biological target: Proto-oncogene tyrosine-protein kinase ROS (Homo sapiens, UniProt P08922); test: Inhibition of ROS1 (unknown origin)
[27] = biological target: Vascular endothelial growth factor receptor 3 (Homo sapiens, UniProt P35916); test: Inhibition of FLT4 (unknown origin)
[28] = Reductive activation in PBS at pH 7.4 assessed as 2-amino-3-[2-amino-5-[amino(carboxy)methyl]sulfanyl-1-[2-[2-[2-methoxy-5-[[4-(1-methylindol-3-yl)pyrimidin-2-yl]amino]phenoxy]ethoxy]ethyl]imidazol-4-yl]sulfanyl-propanoic acid metabolite formation at 1 uM incubated for 30 mins in presence of cysteine, NADPH and nitroreductase under N2 condition by MS/MS analysis; format: ADME; settings: buffer, pH 7.4, 0.5 h
[29] = Reductive activation in PBS at pH 7.4 assessed as hydroxylamine intermediate formation at 1 uM incubated for 30 mins in presence of cysteine, NADPH and nitroreductase under hypoxia condition by MS/MS analysis; settings: buffer, pH 7.4, 0.5 h
[30] = Reductive activation in PBS at pH 7.4 assessed as 2-amino-3-[2-amino-5-[amino(carboxy)methyl]sulfanyl-1-[2-[2-[2-methoxy-5-[[4-(1-methylindol-3-yl)pyrimidin-2-yl]amino]phenoxy]ethoxy]ethyl]imidazol-4-yl]sulfanyl-propanoic acid metabolite formation at 1 uM incubated for 30 mins in presence of cysteine, NADPH and nitroreductase under hypoxia condition by MS/MS analysis; format: ADME; settings: buffer, pH 7.4, 0.5 h
[31] = Reductive activation in PBS at pH 7.4 assessed as A14-1 metabolite formation at 1 uM incubated for 30 mins in presence of cysteine, NADPH and nitroreductase under normoxia condition by MS/MS analysis; format: ADME; settings: buffer, pH 7.4, 0.5 h
[32] = Reductive activation in PBS at pH 7.4 assessed as 2-amino-3-[2-amino-5-[amino(carboxy)methyl]sulfanyl-1-[2-[2-[2-methoxy-5-[[4-(1-methylindol-3-yl)pyrimidin-2-yl]amino]phenoxy]ethoxy]ethyl]imidazol-4-yl]sulfanyl-propanoic acid metabolite formation at 1 uM incubated for 30 mins in presence of cysteine, NADPH and nitroreductase under normoxia condition by MS/MS analysis; format: ADME; settings: buffer, pH 7.4, 0.5 h

## COc1ccc(Nc2nccc(-c3cn(C)c4ccccc34)n2)cc1OCCOCCn1ccnc1[N+](=O)[O-]
[1]
  IC50: 177 nM
NCI-H1975
  IC50: 4.66 nM
[2]
  Ratio IC50: 5.63
HCC827 [3]
  IC50: 25 nM
HCC827 [4]
  IC50: 5.26 nM
[5]
  inhibition: -7.07%
[6]
  inhibition: 79.2%
[7]
  inhibition: -0.41%
[8]
  inhibition: 29%
[9]
  inhibition: 36.5%
[10]
  inhibition: 26.6%
[11]
  inhibition: 62.7%
[12]
  inhibition: 38.1%
[13]
  inhibition: 90.5%
[14]
  inhibition: 27.4%
[15]
  inhibition: 42.7%
[16]
  inhibition: 88.2%
[17]
  inhibition: 17.4%
[18]
  inhibition: 50.9%
Homo sapiens
  inhibition: 23.9%
[19]
  inhibition: 11.5%
[20]
  inhibition: 32.4%
[21]
  inhibition: 44.3%
[22]
  inhibition: 27.9%
[23]
  inhibition: 65.4%
[24]
  inhibition: 8.02%
[25]
  IC50: 30.9 nM
[26]
  IC50: 107 nM
[27]
  IC50: 227 nM
[28]
  Drug metabolism: Metabolite_Detected
[29]
  Drug metabolism: Metabolite_Detected
[30]
  Drug metabolism: Metabolite_Detected
[31]
  Drug metabolism: Metabolite_Notdetected
[32]
  Drug metabolism: Metabolite_Notdetected

Source: ChEMBL document CHEMBL5325467, “Discovery of novel hypoxia-activated, nitroimidazole constructed multi-target kinase inhibitors on the basis of AZD9291 for the treatment of human lung cancer” (Bioorg Med Chem, 2023)
